Read-outs that look alike come from different tables or passages of the source.
How the values were obtained:
[1] = molecular target: WT S protein (Severe acute respiratory syndrome coronavirus 2, UniProt P0DTC2); assay: biochemical; type: binding
[2] = molecular target: WT RBD (Severe acute respiratory syndrome coronavirus 2, UniProt P0DTC2); type: binding

N[C@@H](CCC(=O)N[C@@H](CS)C(=O)NCC(=O)O)C(=O)O [GSH, reduced glutathione]
effects on WT S protein [1]: did not exhibit any effects

O=C(O)CCP(CCC(=O)O)CCC(=O)O [TCEP, tris-(2-carboxyethyl)phosphine]
effect on WT RBD [2]: marginal effect

CC(=O)N[C@@H](CS)C(=O)O [NAC, N-acetylcysteine]
effects on WT S protein ([1]; 37 °C 60 min): did not exhibit any effects

NCCCNCCS [WR1065]
IC50 ([1]; IC50, 37 °C 60 min): 1 to 10 mM
